Source: the NIST ThermoML archive (doi:10.1021/acs.jced.6b00350)
Where “and” joins values, the source holds several entries; their conditions need not be identical. Equal values may be shown once. Numbers after ± are expanded uncertainties.

Conditions: Liquid, Hot wire method

SMILES: FC(F)CC(F)(F)F [1,1,1,3,3-pentafluoropropane]
- thermal conductivity (302.4 K, 9755 kPa): 0.09135 ± 0.0012 W/m/K
- thermal conductivity (302.4 K, 43574 kPa): 0.104 ± 0.0013 W/m/K
- thermal conductivity (302.41 K, 9754 kPa): 0.09128 ± 0.0012 W/m/K
- thermal conductivity (302.43 K, 27824 kPa): 0.09846 ± 0.0013 W/m/K
- thermal conductivity (302.43 K, 35521 kPa): 0.1012 ± 0.0013 W/m/K
- thermal conductivity (302.43 K, 35524 kPa): 0.1013 ± 0.0013 W/m/K
- thermal conductivity (302.44 K, 27822 kPa): 0.09861 ± 0.0013 W/m/K
- thermal conductivity (302.47 K, 4917 kPa): 0.08905 ± 0.0011 W/m/K
- thermal conductivity (302.47 K, 4920 kPa): 0.08908 ± 0.0011 W/m/K
- thermal conductivity (302.49 K, 21586 kPa): 0.09609 ± 0.0012 W/m/K
- thermal conductivity (302.49 K, 21587 kPa): 0.09598 ± 0.0012 W/m/K
- thermal conductivity (302.51 K, 297 kPa): 0.08675 ± 0.0011 W/m/K
- thermal conductivity (302.52 K, 295 kPa): 0.08688 ± 0.0011 W/m/K
- thermal conductivity (302.57 K, 15359 kPa): 0.09341 ± 0.0012 W/m/K
- thermal conductivity (302.57 K, 15368 kPa): 0.0935 ± 0.0012 W/m/K
- thermal conductivity (302.68 K, 68021 kPa): 0.1116 ± 0.0014 W/m/K
- thermal conductivity (302.68 K, 68023 kPa): 0.1115 ± 0.0014 W/m/K
- thermal conductivity (302.69 K, 62436 kPa): 0.1101 ± 0.0014 W/m/K
- thermal conductivity (302.7 K, 62429 kPa): 0.1097 ± 0.0014 W/m/K
- thermal conductivity (302.76 K, 52483 kPa): 0.107 ± 0.0014 W/m/K
- thermal conductivity (302.76 K, 52489 kPa): 0.1069 ± 0.0014 W/m/K
- thermal conductivity (302.81 K, 43572 kPa): 0.104 ± 0.0013 W/m/K
- thermal conductivity (302.82 K, 43572 kPa): 0.1041 ± 0.0013 W/m/K
- thermal conductivity (302.85 K, 35512 kPa): 0.1012 ± 0.0013 W/m/K
- thermal conductivity (302.85 K, 35521 kPa): 0.1013 ± 0.0013 W/m/K
- thermal conductivity (302.87 K, 9749 kPa): 0.09105 ± 0.0012 W/m/K
- thermal conductivity (302.87 K, 9754 kPa): 0.091 ± 0.0012 W/m/K
- thermal conductivity (302.88 K, 27813 kPa): 0.09844 ± 0.0013 W/m/K
- thermal conductivity (302.88 K, 27817 kPa): 0.09814 ± 0.0013 W/m/K
- thermal conductivity (302.93 K, 4918 kPa): 0.08893 ± 0.0011 W/m/K
- thermal conductivity (302.93 K, 4920 kPa): 0.0888 ± 0.0011 W/m/K
- thermal conductivity (302.94 K, 21581 kPa): 0.09604 ± 0.0012 W/m/K
- thermal conductivity (302.94 K, 21589 kPa): 0.09618 ± 0.0012 W/m/K
- thermal conductivity (302.99 K, 297 kPa): 0.08639 ± 0.0011 W/m/K
- thermal conductivity (302.99 K, 298 kPa): 0.08647 ± 0.0011 W/m/K
- thermal conductivity (303.03 K, 15369 kPa): 0.09337 ± 0.0012 W/m/K
- thermal conductivity (303.04 K, 15370 kPa): 0.09341 ± 0.0012 W/m/K
- thermal conductivity (303.11 K, 68011 kPa): 0.1115 ± 0.0014 W/m/K
- thermal conductivity (303.12 K, 68009 kPa): 0.1114 ± 0.0014 W/m/K
- thermal conductivity (303.13 K, 62430 kPa): 0.11 ± 0.0014 W/m/K
- thermal conductivity (303.13 K, 62436 kPa): 0.11 ± 0.0014 W/m/K
- thermal conductivity (303.21 K, 52481 kPa): 0.1068 ± 0.0014 W/m/K
- thermal conductivity (303.21 K, 52487 kPa): 0.1068 ± 0.0014 W/m/K
- thermal conductivity (303.27 K, 43574 kPa): 0.104 ± 0.0013 W/m/K
- thermal conductivity (303.27 K, 43576 kPa): 0.1041 ± 0.0013 W/m/K
- thermal conductivity (303.33 K, 35513 kPa): 0.1011 ± 0.0013 W/m/K
- thermal conductivity (303.33 K, 35514 kPa): 0.1012 ± 0.0013 W/m/K
- thermal conductivity (303.36 K, 9753 kPa): 0.09097 ± 0.0012 W/m/K
- thermal conductivity (303.36 K, 9758 kPa): 0.09104 ± 0.0012 W/m/K
- thermal conductivity (303.36 K, 27804 kPa): 0.0984 ± 0.0013 W/m/K
- thermal conductivity (303.37 K, 27811 kPa): 0.09842 ± 0.0013 W/m/K
- thermal conductivity (303.44 K, 4916 kPa): 0.08869 ± 0.0011 W/m/K
- thermal conductivity (303.44 K, 4920 kPa): 0.08879 ± 0.0011 W/m/K
- thermal conductivity (303.44 K, 21579 kPa): 0.09595 ± 0.0012 W/m/K
- thermal conductivity (303.44 K, 21587 kPa): 0.09607 ± 0.0012 W/m/K
- thermal conductivity (303.51 K, 294 kPa): 0.08655 ± 0.0011 W/m/K
- thermal conductivity (303.51 K, 297 kPa): 0.08645 ± 0.0011 W/m/K
- thermal conductivity (303.54 K, 15365 kPa): 0.09343 ± 0.0012 W/m/K
- thermal conductivity (303.54 K, 15366 kPa): 0.09328 ± 0.0012 W/m/K
- thermal conductivity (321.62 K, 4352 kPa): 0.08273 ± 0.0011 W/m/K
- thermal conductivity (321.63 K, 4356 kPa): 0.08308 ± 0.0011 W/m/K
- thermal conductivity (321.64 K, 337 kPa): 0.08036 ± 0.001 W/m/K
- thermal conductivity (321.65 K, 338 kPa): 0.08047 ± 0.001 W/m/K
- thermal conductivity (321.65 K, 69905 kPa): 0.1085 ± 0.0014 W/m/K
- thermal conductivity (321.65 K, 69906 kPa): 0.1083 ± 0.0014 W/m/K
- thermal conductivity (321.68 K, 58591 kPa): 0.1047 ± 0.0013 W/m/K
- thermal conductivity (321.68 K, 58592 kPa): 0.1049 ± 0.0013 W/m/K
- thermal conductivity (321.69 K, 40553 kPa): 0.09923 ± 0.0013 W/m/K
- thermal conductivity (321.7 K, 40558 kPa): 0.09918 ± 0.0013 W/m/K
- thermal conductivity (321.7 K, 49855 kPa): 0.1015 ± 0.0013 W/m/K
- thermal conductivity (321.7 K, 49873 kPa): 0.1019 ± 0.0013 W/m/K
- thermal conductivity (321.71 K, 33193 kPa): 0.0964 ± 0.0012 W/m/K
- thermal conductivity (321.71 K, 33197 kPa): 0.09631 ± 0.0012 W/m/K
- thermal conductivity (321.73 K, 26150 kPa): 0.09344 ± 0.0012 W/m/K
- thermal conductivity (321.73 K, 26151 kPa): 0.093 ± 0.0012 W/m/K
- thermal conductivity (321.74 K, 19697 kPa): 0.09044 ± 0.0012 W/m/K
- thermal conductivity (321.76 K, 19703 kPa): 0.09051 ± 0.0012 W/m/K
- thermal conductivity (321.77 K, 13835 kPa): 0.08752 ± 0.0011 W/m/K
- thermal conductivity (321.78 K, 13839 kPa): 0.08772 ± 0.0011 W/m/K
- thermal conductivity (321.81 K, 8795 kPa): 0.08531 ± 0.0011 W/m/K
- thermal conductivity (321.82 K, 8794 kPa): 0.08538 ± 0.0011 W/m/K
- thermal conductivity (322.02 K, 69892 kPa): 0.1082 ± 0.0014 W/m/K
- thermal conductivity (322.02 K, 69896 kPa): 0.1083 ± 0.0014 W/m/K
- thermal conductivity (322.06 K, 58582 kPa): 0.1049 ± 0.0013 W/m/K
- thermal conductivity (322.06 K, 58584 kPa): 0.105 ± 0.0013 W/m/K
- thermal conductivity (322.07 K, 4350 kPa): 0.08295 ± 0.0011 W/m/K
- thermal conductivity (322.07 K, 4352 kPa): 0.08313 ± 0.0011 W/m/K
- thermal conductivity (322.08 K, 49847 kPa): 0.1021 ± 0.0013 W/m/K
- thermal conductivity (322.09 K, 40542 kPa): 0.09897 ± 0.0013 W/m/K
- thermal conductivity (322.09 K, 49848 kPa): 0.1021 ± 0.0013 W/m/K
- thermal conductivity (322.1 K, 332 kPa): 0.08025 ± 0.001 W/m/K
- thermal conductivity (322.1 K, 40546 kPa): 0.09896 ± 0.0013 W/m/K
- thermal conductivity (322.11 K, 332 kPa): 0.08034 ± 0.001 W/m/K
- thermal conductivity (322.11 K, 33198 kPa): 0.09595 ± 0.0012 W/m/K
- thermal conductivity (322.12 K, 33200 kPa): 0.09642 ± 0.0012 W/m/K
- thermal conductivity (322.14 K, 26147 kPa): 0.09346 ± 0.0012 W/m/K
- thermal conductivity (322.15 K, 26148 kPa): 0.09328 ± 0.0012 W/m/K
- thermal conductivity (322.18 K, 19689 kPa): 0.09041 ± 0.0012 W/m/K
- thermal conductivity (322.18 K, 19694 kPa): 0.09034 ± 0.0012 W/m/K
- thermal conductivity (322.23 K, 13831 kPa): 0.08764 ± 0.0011 W/m/K
- thermal conductivity (322.23 K, 13837 kPa): 0.08773 ± 0.0011 W/m/K
- thermal conductivity (322.27 K, 8791 kPa): 0.08514 ± 0.0011 W/m/K
- thermal conductivity (322.27 K, 8795 kPa): 0.08522 ± 0.0011 W/m/K
- thermal conductivity (322.42 K, 69875 kPa): 0.1077 ± 0.0014 W/m/K
- thermal conductivity (322.42 K, 69881 kPa): 0.1077 ± 0.0014 W/m/K
- thermal conductivity (322.47 K, 58570 kPa): 0.1047 ± 0.0013 W/m/K
- thermal conductivity (322.48 K, 58576 kPa): 0.1046 ± 0.0013 W/m/K
- thermal conductivity (322.51 K, 49828 kPa): 0.1017 ± 0.0013 W/m/K
- thermal conductivity (322.51 K, 49834 kPa): 0.1019 ± 0.0013 W/m/K
- thermal conductivity (322.53 K, 40525 kPa): 0.09861 ± 0.0013 W/m/K
- thermal conductivity (322.53 K, 40531 kPa): 0.09882 ± 0.0013 W/m/K
- thermal conductivity (322.56 K, 4352 kPa): 0.0827 ± 0.0011 W/m/K and 0.08272 ± 0.0011 W/m/K
- thermal conductivity (322.56 K, 33194 kPa): 0.09577 ± 0.0012 W/m/K and 0.09565 ± 0.0012 W/m/K
- thermal conductivity (322.6 K, 328 kPa): 0.08026 ± 0.001 W/m/K
- thermal conductivity (322.61 K, 332 kPa): 0.08024 ± 0.001 W/m/K
- thermal conductivity (322.61 K, 26147 kPa): 0.09305 ± 0.0012 W/m/K
- thermal conductivity (322.61 K, 26148 kPa): 0.09299 ± 0.0012 W/m/K
- thermal conductivity (322.65 K, 19690 kPa): 0.0904 ± 0.0012 W/m/K
- thermal conductivity (322.66 K, 19689 kPa): 0.09023 ± 0.0012 W/m/K
- thermal conductivity (322.71 K, 13830 kPa): 0.08772 ± 0.0011 W/m/K
- thermal conductivity (322.72 K, 13830 kPa): 0.08785 ± 0.0011 W/m/K
- thermal conductivity (322.76 K, 8791 kPa): 0.08512 ± 0.0011 W/m/K
- thermal conductivity (322.77 K, 8793 kPa): 0.08496 ± 0.0011 W/m/K
- thermal conductivity (322.85 K, 69859 kPa): 0.1077 ± 0.0014 W/m/K
- thermal conductivity (322.86 K, 69861 kPa): 0.1078 ± 0.0014 W/m/K
- thermal conductivity (322.92 K, 58557 kPa): 0.1047 ± 0.0013 W/m/K
- thermal conductivity (322.92 K, 58569 kPa): 0.1047 ± 0.0013 W/m/K
- thermal conductivity (322.96 K, 49820 kPa): 0.1018 ± 0.0013 W/m/K
- thermal conductivity (322.97 K, 49830 kPa): 0.1018 ± 0.0013 W/m/K
- thermal conductivity (323 K, 40517 kPa): 0.09874 ± 0.0013 W/m/K
- thermal conductivity (323 K, 40525 kPa): 0.09862 ± 0.0013 W/m/K
- thermal conductivity (323.04 K, 33192 kPa): 0.0959 ± 0.0012 W/m/K
- thermal conductivity (323.05 K, 33192 kPa): 0.09594 ± 0.0012 W/m/K
- thermal conductivity (323.09 K, 4348 kPa): 0.08267 ± 0.0011 W/m/K
- thermal conductivity (323.1 K, 4349 kPa): 0.08248 ± 0.0011 W/m/K
- thermal conductivity (323.1 K, 26147 kPa): 0.09286 ± 0.0012 W/m/K
- thermal conductivity (323.11 K, 26150 kPa): 0.09307 ± 0.0012 W/m/K
- thermal conductivity (323.15 K, 332 kPa): 0.0802 ± 0.001 W/m/K
